Reference: patent publication US12624067B2, “Cyclic peptide, cell scaffold material, cell separating material, and medium” (FUJIFILM Corporation, priority 2019, dated 2026)
Numbered stars: 1 amine (or outer) side, 2 acyl side, 3 side chain; on linkers, the order of the positions; unused ones are H or OH. Bridge positions count the residues as written; N and C are the ends. Square brackets hold non-standard residues; d marks the D form. Peptide text beside a SMILES is read from it. hCys = N[C@@H](CCS)C(=O)O; Orn = NCCC[C@H](N)C(=O)O; X1 = O=C(C[*:1])[*:2]; X2 = O=C(C[*:2])[*:1]

What was measured:
[1] = target: human integrin αvβ5 (Homo sapiens, UniProt P06756+P18084); assay: Evaluation of integrin binding property (surface plasmon resonance, Biacore 3000, immobilized cyclic peptide); conditions: peptide immobilized on CM5 sensor chip; human integrin αvβ5 30-1,000 nM, 25° C., HEPES buffer with 5 mM magnesium chloride; read-out: Integrin binding property (dissociation constant)
Chain of human integrin αvβ5 (P06756 31-889 limits assumed): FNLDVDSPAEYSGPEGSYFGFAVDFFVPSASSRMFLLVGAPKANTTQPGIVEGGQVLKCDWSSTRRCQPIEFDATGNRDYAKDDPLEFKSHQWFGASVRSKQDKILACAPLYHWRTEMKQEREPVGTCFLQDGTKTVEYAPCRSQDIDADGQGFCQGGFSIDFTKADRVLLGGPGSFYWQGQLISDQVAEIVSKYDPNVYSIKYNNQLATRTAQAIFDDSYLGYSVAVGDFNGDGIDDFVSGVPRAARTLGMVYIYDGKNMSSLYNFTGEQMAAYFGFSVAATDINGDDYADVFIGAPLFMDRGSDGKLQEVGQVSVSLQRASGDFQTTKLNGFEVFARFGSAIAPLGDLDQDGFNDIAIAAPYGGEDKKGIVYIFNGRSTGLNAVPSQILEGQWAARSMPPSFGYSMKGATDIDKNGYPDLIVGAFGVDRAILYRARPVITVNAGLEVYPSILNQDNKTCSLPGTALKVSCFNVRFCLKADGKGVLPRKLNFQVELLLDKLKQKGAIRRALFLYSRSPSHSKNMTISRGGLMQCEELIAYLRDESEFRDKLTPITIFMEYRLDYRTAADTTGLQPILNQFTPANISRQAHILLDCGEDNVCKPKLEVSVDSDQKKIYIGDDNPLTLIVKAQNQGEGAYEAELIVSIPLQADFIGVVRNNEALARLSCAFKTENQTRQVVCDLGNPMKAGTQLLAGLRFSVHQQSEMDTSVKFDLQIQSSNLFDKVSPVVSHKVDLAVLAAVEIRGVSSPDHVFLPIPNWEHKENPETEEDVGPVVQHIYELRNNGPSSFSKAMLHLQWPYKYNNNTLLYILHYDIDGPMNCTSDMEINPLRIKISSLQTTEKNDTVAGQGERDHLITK
Chain of human integrin αvβ5 (P06756 891-1048 partner limits assumed): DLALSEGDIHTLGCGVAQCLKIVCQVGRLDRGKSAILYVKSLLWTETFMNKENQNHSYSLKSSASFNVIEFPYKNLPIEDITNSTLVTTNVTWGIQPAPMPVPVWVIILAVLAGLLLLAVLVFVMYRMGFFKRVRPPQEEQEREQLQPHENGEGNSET
Chain of human integrin αvβ5 (P18084 24-799): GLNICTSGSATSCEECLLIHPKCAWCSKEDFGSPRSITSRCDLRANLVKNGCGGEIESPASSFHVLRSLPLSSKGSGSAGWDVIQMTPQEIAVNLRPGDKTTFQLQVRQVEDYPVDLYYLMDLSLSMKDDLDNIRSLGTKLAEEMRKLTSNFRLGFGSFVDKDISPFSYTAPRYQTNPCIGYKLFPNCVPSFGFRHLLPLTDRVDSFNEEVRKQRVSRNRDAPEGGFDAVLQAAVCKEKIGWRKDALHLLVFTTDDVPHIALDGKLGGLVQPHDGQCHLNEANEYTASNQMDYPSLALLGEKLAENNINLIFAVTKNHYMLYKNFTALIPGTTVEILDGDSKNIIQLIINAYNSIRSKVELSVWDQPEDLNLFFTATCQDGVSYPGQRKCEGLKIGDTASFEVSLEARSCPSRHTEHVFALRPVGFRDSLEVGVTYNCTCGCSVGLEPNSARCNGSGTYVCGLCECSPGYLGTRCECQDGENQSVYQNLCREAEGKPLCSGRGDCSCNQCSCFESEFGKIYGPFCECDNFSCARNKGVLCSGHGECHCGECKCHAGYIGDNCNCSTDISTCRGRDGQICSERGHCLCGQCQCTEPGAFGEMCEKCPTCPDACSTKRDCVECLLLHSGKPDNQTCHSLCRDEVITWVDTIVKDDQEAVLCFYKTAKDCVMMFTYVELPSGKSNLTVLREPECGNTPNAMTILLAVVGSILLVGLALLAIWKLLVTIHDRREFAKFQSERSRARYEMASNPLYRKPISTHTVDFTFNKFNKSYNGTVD
Outline: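 Cyclic peptides amine-coupled to a CM5 chip via EDC/NHS, with a blank reference channel; integrin injected 10 min at 25 °C at 30, 100, 300 and 1,000 nM in HEPES pH 7.4, 150 mM NaCl, 5 mM MgCl2, then 30 min buffer flow, EDTA regeneration. Kd from reference-subtracted responses, graded by category.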

[2] = Evaluation of molecule stability (alkali treatment, LC/MS residual rate); format: physicochemical; conditions: 500 μM peptide plus equivalent of 1 M sodium hydroxide, 15° C., 20 minutes, LC/MS peak area
Outline: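 Cyclic peptide at 500 μM in water treated with an equivalent of 1 M NaOH for 20 minutes at 15° C. Residual rate is the total LC/MS peak area after treatment relative to that before treatment, set as 100%. Analysis on a C18 column at 45° C with ammonium formate pH 3 eluents and ESI detection.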

Row | Kd [1] [nM] | SMILES | Molecule stability (cyclic peptide residual rate) [2]
1 | 50 to 100 | CC[C@H](C)[C@@H]1NC(=O)CSCC[C@@H](C(=O)N[C@@H](CCCCN)C(=O)N[C@@H](CCCCN)C(=O)N[C@@H](CCCCN)C(=O)O)NC(=O)[C@@H]2CCCN2C(=O)[C@@H]2CCCCNC(=O)CSCC[C@H](NC1=O)C(=O)N[C@@H](CCCNC(=N)N)C(=O)NCC(=O)N[C@@H](CC(=O)O)C(=O)N2 [Cyclic peptide 31] ({CH2CO}-I[hCys]RGDKP[hCys]KKK-OH; linker 2-6 via X1; thioether N-8) | A (The residual rate of the cyclic peptide is 70% or more.)
2 | 50 to 100 | CC[C@H](C)[C@@H]1NC(=O)CSCC[C@@H](C(=O)N[C@@H](CCCCN)C(=O)N[C@@H](CCCCN)C(=O)N[C@@H](CCCCN)C(=O)O)NC(=O)[C@H](Cc2ccc(O)cc2)NC(=O)[C@@H]2CCCCNC(=O)CSCC[C@H](NC1=O)C(=O)N[C@@H](CCCNC(=N)N)C(=O)NCC(=O)N[C@@H](CC(=O)O)C(=O)N2 [Cyclic peptide 32] ({CH2CO}-I[hCys]RGDKY[hCys]KKK-OH; linker 2-6 via X1; thioether N-8) | A (The residual rate of the cyclic peptide is 70% or more.)
3 | 100 to 200 | CC[C@H](C)[C@@H]1NC(=O)CSCC[C@@H](C(=O)N[C@@H](CCCCN)C(=O)N[C@@H](CCCCN)C(=O)N[C@@H](CCCCN)C(=O)O)NC(=O)[C@H](CCCNC(=N)N)NC(=O)[C@H](Cc2ccccc2)NC(=O)[C@@H]2CCCCNC(=O)CSCC[C@H](NC1=O)C(=O)N[C@@H](CCCNC(=N)N)C(=O)NCC(=O)N[C@@H](CC(=O)O)C(=O)N2 [Cyclic peptide 33] ({CH2CO}-I[hCys]RGDKFR[hCys]KKK-OH; linker 2-6 via X1; thioether N-9) | A (The residual rate of the cyclic peptide is 70% or more.)
4 | 50 to 100 | CC[C@H](C)[C@@H]1NC(=O)CSCC[C@@H](C(=O)N[C@@H](CCCCN)C(=O)N[C@@H](CCCCN)C(=O)N[C@@H](CCCCN)C(=O)O)NC(=O)[C@H](C)NC(=O)[C@H](Cc2ccccc2)NC(=O)[C@@H]2CCCCNC(=O)CSCC[C@H](NC1=O)C(=O)N[C@@H](CCCNC(=N)N)C(=O)NCC(=O)N[C@@H](CC(=O)O)C(=O)N2 [Cyclic peptide 34] ({CH2CO}-I[hCys]RGDKFA[hCys]KKK-OH; linker 2-6 via X1; thioether N-9) | A (The residual rate of the cyclic peptide is 70% or more.)
5 | < 50 | CC[C@H](C)[C@@H]1NC(=O)CSCC[C@@H](C(=O)N[C@@H](C)C(=O)N[C@@H](CCCCN)C(=O)N[C@@H](CCCCN)C(=O)N[C@@H](CCCCN)C(=O)O)NC(=O)[C@H](Cc2ccccc2)NC(=O)[C@@H]2CCCCNC(=O)CSCC[C@H](NC1=O)C(=O)N[C@@H](CCCNC(=N)N)C(=O)NCC(=O)N[C@@H](CC(=O)O)C(=O)N2 [Cyclic peptide 35] ({CH2CO}-I[hCys]RGDKF[hCys]AKKK-OH; linker 2-6 via X1; thioether N-8) | A (The residual rate of the cyclic peptide is 70% or more.)
6 | 50 to 100 | C[C@H](N)C(=O)N[C@H]1CCSCC(=O)NCCCC[C@@H](C(=O)N[C@@H](CCCCN)C(=O)N[C@@H](CCCCN)C(=O)N[C@@H](CCCCN)C(=O)O)NC(=O)[C@H](Cc2ccccc2)NC(=O)[C@@H]2CCCCNC(=O)CSCC[C@H](NC1=O)C(=O)N[C@@H](CCCNC(=N)N)C(=O)NCC(=O)N[C@@H](CC(=O)O)C(=O)N2 [Cyclic peptide 36] (H-A[hCys][hCys]RGDKFKKKK-OH; linker 2-9, 3-7 via X1) | A (The residual rate of the cyclic peptide is 70% or more.)
7 | 50 to 100 | C[C@H](NC(=O)[C@@H]1CCCCNC(=O)CSCC[C@H](NC(=O)[C@H](CCCCN)NC(=O)[C@H](CCCCN)NC(=O)[C@@H](N)CCCCN)C(=O)N[C@H]2CCSCC(=O)NCCCC[C@H](NC(=O)[C@H](CC(=O)O)NC(=O)CNC(=O)[C@H](CCCNC(=N)N)NC2=O)C(=O)N[C@@H](Cc2ccccc2)C(=O)N1)C(=O)O [Cyclic peptide 37] (H-KKK[hCys][hCys]RGDKFKA-OH; linker 4-11, 5-9 via X1) | A (The residual rate of the cyclic peptide is 70% or more.)
8 | < 50 | CC(C)[C@@H]1NC(=O)CSCC[C@@H](C(=O)N[C@@H](CCCCN)C(=O)N[C@@H](CCCCN)C(=O)N[C@@H](CCCCN)C(=O)O)NC(=O)[C@H](Cc2ccccc2)NC(=O)[C@@H]2CCSCC(=O)NCCC[C@H](NC1=O)C(=O)N[C@@H](CCCNC(=N)N)C(=O)NCC(=O)N[C@@H](CC(=O)O)C(=O)N2 [Cyclic peptide 38] ({CH2CO}-V[Orn]RGD[hCys]F[hCys]KKK-OH; linker 2-6 via X2; thioether N-8) | A (The residual rate of the cyclic peptide is 70% or more.)
9 | < 50 | N=C(N)NCCC[C@@H]1NC(=O)[C@@H]2CCCNC(=O)CSCC[C@H](NC(=O)[C@H](CC(=O)O)NC(=O)CNC1=O)C(=O)N[C@@H](Cc1ccccc1)C(=O)N[C@H](C(=O)N[C@@H](CCCCN)C(=O)N[C@@H](CCCCN)C(=O)N[C@@H](CCCCN)C(=O)O)CCSCC(=O)N[C@@H](CC(=O)O)C(=O)N2 [Cyclic peptide 39] ({CH2CO}-D[Orn]RGD[hCys]F[hCys]KKK-OH; linker 2-6 via X2; thioether N-8) | A (The residual rate of the cyclic peptide is 70% or more.)
10 | < 50 | N=C(N)NCCC[C@@H]1NC(=O)[C@@H]2CCCNC(=O)CSCC[C@H](NC(=O)[C@H](CC(=O)O)NC(=O)CNC1=O)C(=O)N[C@@H](Cc1ccccc1)C(=O)N[C@H](C(=O)N[C@@H](CCCCN)C(=O)N[C@@H](CCCCN)C(=O)N[C@@H](CCCCN)C(=O)O)CCSCC(=O)N[C@@H](CCC(=O)O)C(=O)N2 [Cyclic peptide 40] ({CH2CO}-E[Orn]RGD[hCys]F[hCys]KKK-OH; linker 2-6 via X2; thioether N-8) | A (The residual rate of the cyclic peptide is 70% or more.)
11 | 50 to 100 | CC(C)[C@@H]1NC(=O)CSCC[C@@H](C(=O)N[C@@H](CCCCN)C(=O)N[C@@H](CCCCN)C(=O)N[C@@H](CCCCN)C(=O)O)NC(=O)[C@H](Cc2ccccc2)NC(=O)[C@@H]2CCCNC(=O)CSCC[C@H](NC1=O)C(=O)N[C@@H](CCCNC(=N)N)C(=O)NCC(=O)N[C@@H](CC(=O)O)C(=O)N2 [Cyclic peptide 41] ({CH2CO}-V[hCys]RGD[Orn]F[hCys]KKK-OH; linker 2-6 via X1; thioether N-8) | A (The residual rate of the cyclic peptide is 70% or more.)
12 | < 50 | N=C(N)NCCC[C@@H]1NC(=O)[C@@H]2CCSCC(=O)NCCC[C@H](NC(=O)[C@H](CC(=O)O)NC(=O)CNC1=O)C(=O)N[C@@H](Cc1ccccc1)C(=O)N[C@H](C(=O)N[C@@H](CCCCN)C(=O)N[C@@H](CCCCN)C(=O)N[C@@H](CCCCN)C(=O)O)CCSCC(=O)N[C@@H](CC(=O)O)C(=O)N2 [Cyclic peptide 42] ({CH2CO}-D[hCys]RGD[Orn]F[hCys]KKK-OH; linker 2-6 via X1; thioether N-8) | A (The residual rate of the cyclic peptide is 70% or more.)
